{"source": "paper PMC8157569", "about": "(Pharmaceuticals, 2021)", "biological_target": "T1, α1A-adrenoceptor (Homo sapiens, UniProt P35348)", "T1 construct": "gene ADRA1A", "T1 sequence (P35348 1-466)": "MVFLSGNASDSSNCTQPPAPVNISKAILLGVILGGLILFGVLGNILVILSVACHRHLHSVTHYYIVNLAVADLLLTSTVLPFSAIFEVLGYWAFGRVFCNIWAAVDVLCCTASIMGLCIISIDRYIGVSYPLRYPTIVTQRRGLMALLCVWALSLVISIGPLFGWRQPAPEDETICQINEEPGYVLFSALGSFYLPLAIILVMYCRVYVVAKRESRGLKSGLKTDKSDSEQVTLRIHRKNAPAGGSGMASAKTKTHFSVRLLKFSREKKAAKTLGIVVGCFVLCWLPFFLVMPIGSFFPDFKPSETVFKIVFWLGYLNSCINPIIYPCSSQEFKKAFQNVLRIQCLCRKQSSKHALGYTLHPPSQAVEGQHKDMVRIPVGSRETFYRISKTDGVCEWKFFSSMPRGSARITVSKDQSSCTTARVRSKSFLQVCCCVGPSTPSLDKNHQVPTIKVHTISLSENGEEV", "test": "aequorin luminescence calcium assay, antagonist mode against phenylephrine, cells stably expressing human α1A-adrenoceptor", "assay_type": "cell-based", "note": "Where a name gives a salt, the structure may show the parent alone.", "data": [{"smiles": "COc1ccccc1N1CCN(CCCOc2c(C)cccc2C)CC1", "note": "[MH-76, 1-[3-(2,6-dimethylphenoxy)propyl]-4-(2-methoxyphenyl)piperazine hydrochloride]", "values": [{"measurement": "IC50", "value": 1.42, "unit": "nM"}]}]}
